This series in a line: In vivo pharmacokinetics in ICR mouse. The protocol:
The pharmacokinetic properties of the compounds of the present disclosure were assessed in ICR mice (male, 6-8 weeks, 20.0-25.3 g) after p.o. and i.v. administration.
The ICR mice were purchased from Vital River Laboratory Technology Co., Ltd. (Beijing, China), housed in solid bottom polypropylene cages with sterilized bedding, kept in a room with 40% to 70% humidity, 20 to 25° C. room temperature, 10 to 20 air changes/hour, and on a 12-hour light/dark cycle except when interruptions are necessitated by study activities. The mice were fed with sterilized diet from Shanghai SLAC Laboratory Animal Co., Ltd. (Shanghai, China) and sterilized water. All animals were examined upon receipt and were acclimated for at least 3 days. Only the ones that appear to be healthy were selected for the study basing on overall health, body weight, or other relevant data as appropriate. Individual animal in each group was identified by ear notch.
The mice were fasted overnight prior to treatment, but having free access to drinking water all the time. Before dosing, each mouse was weighed and the actual dose volume for each mouse was calculated by using the formula below: Dose Volume (mL) [Nominal Dose (mg·kg^−1)/Dose Concentration (mg·mL^−1)]×Animal Body Weight (kg)
The actual body weights and the actual dose volumes were recorded accordingly.
For each test group, nine mice were used, and mice in different groups were given a single p.o dose of the test compound at 10 mg·kg^−1, or a single i.v. dose of 2 mg·kg^−1 respectively. Blood samples (e.g., at least […]) were collected into EDTA-K2 tubes at pre-determined time points, for example, pre-dose, 5 min, 15 min, 30 min, 1 h, 2 h, 4 h, 8 h, 12 h, and 24 h post-dose. Each mouse was collected the blood sample at three discontinuous time points, and three mice were used for sampling at each time point. The collected samples were centrifuged at 5500 rpm for 10 min to obtain plasma samples, which were later measured by LC-MS/MS. Data of plasma concentration vs. time were processed by linear regression analysis. All pharmacokinetic parameters were calculated using non-compartment model of Pharsight Phoenix 6.3.
The pharmacokinetics (PK) studies of the compounds were conducted in ICR mice (male, 6-8 weeks, 20.0-25.3 g, Vital River Laboratory Technology Co., Ltd.) administrated a single p.o. dose of 10 mg·kg^−1 or a single i.v. dose of 2 mg·kg^−1 according to the method disclosed in Test 4 of the Biological evaluation section.
Each experiment was independently performed in triplicate. The plasma concentration of an exemplary Compound 23 after a p.o. administration of 10 mg·kg^−1 in ICR mouse is plotted as function of time in FIG. 6. The plasma concentration of the exemplary Compound 23 after an i.v. injection of 2 mg·kg^−1 in ICR mouse is plotted as function of time in FIG. 7. Each data represents the mean plasma concentration of the three experiments with standard error of mean (SEM) as error bars.

Setting [1] is: male, plasma, iv, i.v. dose of 2 mg · kg^−1.
Setting [2] is: male, plasma, po, p.o. dose of 10 mg · kg^−1.

Where two headings read alike, the source gives them in different places.

The source of these data is patent publication US10752626B2, “Iso-citrate dehydrogenase (IDH) inhibitor” (SHANGHAI METON PHARMACEUTICAL CO., LTD, priority 2016, dated 2020).

One may read the AUC(0-t) as exposure summed from dosing to a finite time, without extrapolation to infinity. A higher AUC(0-t) goes with high exposure. As a reminder, the clearance is a measure of how efficiently the substance is removed, as volume per time. Read a high clearance as a high capacity for elimination. In general, half-life refers to the time in which the quantity being followed falls by half. A lower half-life goes with fast loss. Broadly, the Cmax is the maximum level reached in the sampled fluid or tissue. The term Tmax denotes the time from dosing to the highest level.

For the molecule `CCN1Cc2c(ccnc2N[C@@H](C)c2ccc(Oc3ccccc3)c(F)c2)C1=O` [Compound 23, (S)-2-ethyl-4-((1-(3-fluoro-4-phenoxyphenyl)ethyl)amino)-2,3-dihydro-1H-pyrrolo[3,4-c]pyridin-1-one], where the note is “i.v. dose of 2 mg · kg^−1”, the AUMC0-inf was 1283 ng · h^2 · mL^−1, the AUMC0-t came out at 1138 ng · h^2 · mL^−1, the Kel was determined as 0.244 h⁻¹ and the MRTIV came out at 58.8 min. Under setting [1], this molecule had an AUC(0-t) of 1300 ng·h/mL, a clearance of 25.4 mL/min/kg and a half-life of 168 min. For the same molecule, the AUC0-inf (male, plasma, iv, i.v. dose of 2 mg · kg^−1, read-out: AUC0-inf) is 1310 ng·h/mL. The Vd (male, plasma, iv, i.v. dose of 2 mg · kg^−1, read-out: Vdss) amounted to 1.49 L/kg. Besides, under setting [2], the exposure AUC(0-t) came out at 2890 ng·h/mL, the maximum concentration (Cmax) was 1180 ng/mL, the time to peak (Tmax) was found to be 15 min and the half-life is 108 min. For the setting “p.o. dose of 10 mg · kg^−1”, the AUC0-inf amounted to 2917 ng · h · mL^1, the AUMC0-inf came out at 7550 ng · h^2 · mL^−1, the AUMC0-t came to 7099 ng · h^2 · mL^−1 and the F is listed as 44%. For the setting “p.o. dose of 10 mg · kg^−1”, this molecule returned a Kel of 0.385 h⁻¹ and an MRTPO of 2.6 h.
